Where two headings read alike, the source gives them in different places.
Assays:
[1] = Adults, pooled ECHO/THRIVE, RPV 25 mg qd, N=44; cited from earlier work
[2] = Intensive PK assessment of RPV at steady state, Phase II open-label trial in ARV-naive HIV-1 infected adolescents and children; conditions: RPV 25 mg qd multiple dose
[3] = clinical; conditions: human, in vivo, 25 mg, mean ± SD, RPV 25 mg qd multiple dose; for AUC(0-t): AUC24h
[4] = adult and pediatric participants receiving abacavir in clinical studies; cited from earlier work
[5] = Adolescents (Cohort 1, ≥12 to <18 years), N=23
[6] = Children ≥6-<12 years (Cohort 2), all bodyweights, N=10, preliminary analysis
[7] = Children ≥6-<12 years (Cohort 2), ≥25 kg only, N=5, preliminary analysis

Structure (SMILES) | AUC24h, mean ± SD [1] | C0h (predose plasma concentration), mean ± SD [1] | Cmax, mean ± SD [1] | Cmin, mean ± SD [1] | C0h (predose plasma concentration), mean ± SD [2, 5] | Cmin, mean ± SD [2, 5] | tmax, median [range] [2, 5] | C0h (predose plasma concentration), mean ± SD [2, 6] | Cmin, mean ± SD [2, 6] | C0h (predose plasma concentration), mean ± SD [2, 7] | Cmin, mean ± SD [2, 7] | tmax, median [range] [2, 7] | AUC(0-t) [3, 5] | AUC(0-t) [3, 6] | AUC(0-t) [3, 7] | Cmax [3, 6] | Cmax [3, 7] | Participants with hypersensitivity reactions [4]
Cc1cc(/C=C/C#N)cc(C)c1Nc1ccnc(Nc2ccc(C#N)cc2)n1 [RPV, Rilpivirine] | 2005 ± 970 ng·h/mL | 67.6 ± 39.0 ng/mL | 134 ± 72.0 ng/mL | 53.7 ± 28.3 ng/mL | 80.8 ± 40.4 ng/mL | 57.1 ± 26.3 ng/mL | 5.00 (2.00-9.03) h | 118 ± 61.5 ng/mL | 77 ± 38.4 ng/mL | 104 ± 57 ng/mL | 74 ± 29.7 ng/mL | 4.00 (1.97-9.00) h | 1870 ± 717 ng·h/mL | 3020 ± 1610 ng·h/mL | 2450 ± 735 ng·h/mL | 182 ± 110 ng/mL | 136 ± 46.1 ng/mL | 
Nc1nc(NC2CC2)c2ncn([C@H]3C=C[C@@H](CO)C3)c2n1 [abacavir] |  |  |  |  |  |  |  |  |  |  |  |  |  |  |  |  |  | approximately 5%
